Patent publication US11591323B2, “Muscarinic agonists as non-steroidal and non-opioid analgesics and methods of use thereof” (Barry University, priority 2019, dated 2023)
Like-named read-outs stand apart in the source and are kept apart here.

How the values were obtained:
Assay type in all cases: cell-based
M2 muscarinic receptor = target: T1, M2 muscarinic receptor (Homo sapiens, UniProt P08172); test: stimulation of cAMP, M2 CHO cells (M2Gs); parameters: host or cells: CHO cells, stably transfected; conditions: for Δlog(τ/KA): Table 8, to carbachol; for RAi: Table 8, relative to carbachol
T1 sequence (P08172 1-466): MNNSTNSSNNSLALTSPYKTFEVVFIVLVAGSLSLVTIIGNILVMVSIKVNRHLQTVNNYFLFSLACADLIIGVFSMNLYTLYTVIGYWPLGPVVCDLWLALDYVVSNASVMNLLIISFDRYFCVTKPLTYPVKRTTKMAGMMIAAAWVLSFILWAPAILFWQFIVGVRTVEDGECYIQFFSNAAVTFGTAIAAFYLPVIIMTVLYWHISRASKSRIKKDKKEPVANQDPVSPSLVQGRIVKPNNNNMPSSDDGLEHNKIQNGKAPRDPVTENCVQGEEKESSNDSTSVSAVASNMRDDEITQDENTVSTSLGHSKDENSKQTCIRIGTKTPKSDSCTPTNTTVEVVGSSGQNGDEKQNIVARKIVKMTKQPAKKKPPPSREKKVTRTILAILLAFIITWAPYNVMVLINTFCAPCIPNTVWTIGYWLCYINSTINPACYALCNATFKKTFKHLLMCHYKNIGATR
Description: (§1) To determine level of cAMP, cells in suspension were pre-incubated for 1 h with 0.4 μM [^3H]adenine, washed, and incubated for 10 min in the presence of isobutylmethylxanthine and 10 μM forskolin. […] Incubation was ended by addition of 0.2 ml of 2.5 M HCl to the samples. Samples were applied to alumina columns (1.5 g of alumina per column), washed with 2 ml ammonium acetate (pH=7.0) and eluted from columns with 4 ml ammonium acetate and measured by liquid scintillation spectrometry. […] The incubation was stopped by addition of 0.5 ml of chloroform methanol HCl mixture (2:1:0.1). After separation of water and organic phases, 0.6 ml of water phase was applied to Dowex columns (1.5 g of Dowex per column), washed by 20 ml of 60 mM ammonium formate/5 mM sodium borate buffer and eluted from columns with 4 ml of 1M ammonium formate/0.1 formic acid buffer and measured by liquid scintillation spectrometry.
(§2) Measurements of the production of cAMP and inositol phosphates: Levels of second messengers cAMP and inositol phosphates were determined in radiochemical chromatography assays as described previously. To determine level of cAMP, cells in suspension were pre-incubated for 1 h with 0.4 μM [^3H]adenine, washed, and incubated for 10 min in the presence of isobutylmethylxanthine and 10 μM forskolin. […] Incubation was ended by addition of 0.2 ml of 2.5 M HCl to the samples. Samples were applied to alumina columns (1.5 g of alumina per column), washed with 2 ml ammonium acetate (pH=7.0) and eluted from columns with 4 ml ammonium acetate and measured by liquid scintillation spectrometry. […] For this purpose, new CHO cell lines stably expressing promiscuous G15 G-protein and M2 or M4 receptor were generated by transfection with pCMV/hygro vector and hygromycin selection. To determine the rate of formation of inositol phosphates IPX, suspended cells were pre-incubated with 0.1 μM [^3H]myo-inositol for 60 min, washed, and incubated with 10 mM LiCl for 15 min. […] The incubation was stopped by addition of 0.5 ml of chloroform methanol HCl mixture (2:1:0.1). After separation of water and organic phases, 0.6 ml of water phase was applied to Dowex columns (1.5 g of Dowex per column), washed by 20 ml of 60 mM ammonium formate/5 mM sodium borate buffer and eluted from columns with 4 ml of 1M ammonium formate/0.1 formic acid buffer and measured by liquid scintillation spectrometry.
(§3) For bi-phasic response, curves were inhibitory and stimulatory phase were fitted separately. Operational Model of Functional Agonism
(§4) [formula] where y is functional response at concentration of tested compound x, EMAX is maximal response of the system, KA is equilibrium dissociation constant and nH is slope factor. Eq. 5 was fitted to data from functional experiments. Eq. 5 was fitted to data by the two-step procedure described earlier. […] In the second step, Eq. 5 with EMAX fixed to the value determined in the first step was fitted to individual experimental data sets. Relative Intrinsic Activity

M4 muscarinic receptor = target: T2, M4 muscarinic receptor (Homo sapiens, UniProt P08173); test: accumulation of IPX, M4 CHO cells with promiscuous G15 G-protein (M4Gq+G15); parameters: expressed in transfected cells; pCMV/hygro vector, hygromycin selection; conditions: for E′MAX / τ / Δlog(τ/KA) / RAi: M4 Gq + G15 (↑IPX); for E′MAX / τ: Table 8; for Δlog(τ/KA): Table 8, to carbachol; for accumulation of IPX: M4 co-transfected with G15, in words; for RAi: Table 8, relative to carbachol
T2 sequence (P08173 1-479): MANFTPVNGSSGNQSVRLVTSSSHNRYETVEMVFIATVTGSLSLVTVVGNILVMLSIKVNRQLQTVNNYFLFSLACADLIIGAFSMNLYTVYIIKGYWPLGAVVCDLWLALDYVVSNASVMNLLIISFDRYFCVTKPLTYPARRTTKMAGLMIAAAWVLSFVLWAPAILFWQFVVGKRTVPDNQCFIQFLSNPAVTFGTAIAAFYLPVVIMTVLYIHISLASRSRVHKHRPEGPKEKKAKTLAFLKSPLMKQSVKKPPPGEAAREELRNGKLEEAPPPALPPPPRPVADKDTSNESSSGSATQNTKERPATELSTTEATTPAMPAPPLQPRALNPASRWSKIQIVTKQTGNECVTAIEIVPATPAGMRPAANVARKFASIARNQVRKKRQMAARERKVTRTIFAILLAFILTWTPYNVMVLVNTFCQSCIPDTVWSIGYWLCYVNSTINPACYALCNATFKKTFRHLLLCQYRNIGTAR
Description: Since activation of phospholipase C (PLC) via M2 and M4 receptors is weak, cells were transferred with G15 G-protein to facilitate coupling.
as §1, §2, §3, §4
Muscarinic receptors are also able to stimulate non-preferential signalling pathways.

M3 muscarinic receptor = M3 muscarinic receptor (Homo sapiens, UniProt P20309); test: accumulation of IPX, M3 CHO cells transfected with G15 (M3Gq+G15); parameters: host or cells: CHO cells
Description: as §1, §2, §3, §4

[1] = M3Gq + G15 (↑IPX), Table 8, relative to carbachol
[2] = M3Gq + G15 (↑IPX), Table 8, to carbachol
[3] = M3Gq + G15 (↑IPX), Table 8, read-out: pEC50 (converted)
[4] = M3Gq + G15 (↑IPX), Table 8, read-out: pKA (converted)

M3 muscarinic receptor, sequence (P20309 whole entry): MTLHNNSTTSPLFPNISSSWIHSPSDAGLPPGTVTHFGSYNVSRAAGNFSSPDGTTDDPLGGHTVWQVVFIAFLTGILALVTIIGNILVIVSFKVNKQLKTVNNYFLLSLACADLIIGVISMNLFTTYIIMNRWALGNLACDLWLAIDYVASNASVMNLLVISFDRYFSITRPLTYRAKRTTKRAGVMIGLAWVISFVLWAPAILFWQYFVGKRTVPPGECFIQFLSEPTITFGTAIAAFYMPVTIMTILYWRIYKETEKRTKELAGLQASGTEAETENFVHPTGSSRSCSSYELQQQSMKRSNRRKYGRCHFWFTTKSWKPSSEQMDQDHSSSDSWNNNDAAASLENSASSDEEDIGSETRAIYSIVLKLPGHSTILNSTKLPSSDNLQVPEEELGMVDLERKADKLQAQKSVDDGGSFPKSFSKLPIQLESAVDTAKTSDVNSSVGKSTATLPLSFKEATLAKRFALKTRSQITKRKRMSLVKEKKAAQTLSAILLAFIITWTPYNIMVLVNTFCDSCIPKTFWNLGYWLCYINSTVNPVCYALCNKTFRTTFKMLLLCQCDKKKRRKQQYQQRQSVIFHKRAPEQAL

| Structure (SMILES) | E′MAX (M2 muscarinic receptor; M2Gs (↑cAMP), Table 8) [fold increase] | Δlog(τ/KA) (M2 muscarinic receptor; M2Gs (↑cAMP)) | E′MAX (M4 muscarinic receptor) [fold over basal] | τ (M4 muscarinic receptor) | Δlog(τ/KA) (M4 muscarinic receptor) | accumulation of IPX (M4 muscarinic receptor) | E′MAX (M3 muscarinic receptor; M3Gq + G15 (↑IPX), Table 8) [fold over basal] | τ (M3 muscarinic receptor; M3Gq + G15 (↑IPX), Table 8) | RAi (M3 muscarinic receptor; [1]) | Δlog(τ/KA) (M3 muscarinic receptor; [2]) | EC50 (M3 muscarinic receptor; [3]) [µM] | Kd (M3 muscarinic receptor; [4]) [µM] | RAi (M2 muscarinic receptor; M2Gs (↑cAMP)) | RAi (M4 muscarinic receptor) | other results |
| --- | --- | --- | --- | --- | --- | --- | --- | --- | --- | --- | --- | --- | --- | --- | --- |
| C[N+](C)(C)CCOC(N)=O [carbachol, reference compound] | 3.6 ± 0.2 | 0 | 4.5 ± 0.3 | 4.8 ± 0.5 | 0 | stimulated accumulation of IPX |  |  |  |  |  |  |  |  |  |
| C[N+]1(Cc2cccs2)CC=CCC1.[I-] (stereo not shown) [Compound 7A, 1-methyl-1-[(thiophen-2-yl)methyl]-1,2,3,6-tetrahydropyridin-1-ium iodide] |  |  |  |  |  | did not stimulate IPX accumulation | 3.0 ± 0.3 | 0.08 ± 0.01 | 0.011 ± 0.001 | 1.94 ± 0.20 | 3.16 | 3.16 | 0 | 0 |  |
| C1=CCN(Cc2cccs2)CC1.Cl [Compound 6A, 1-[(thiophen-2-yl)methyl]-1,2,3,6-tetrahydropyridin-1-ium chloride] |  |  |  |  |  | did not stimulate IPX accumulation | 2.5 ± 0.2 | 0.06 ± 0.01 | 0.0058 ± 0.0005 | 2.23 ± 0.23 | 5.01 | 5.01 | 0 | 0 |  |
| O=C1CCCN1CC#CCN1CCCC1 [oxotremorine, reference compound] | 3.1 ± 0.2 | −0.42 ± 0.04 | 4.0 ± 0.3 | 2.5 ± 0.2 | −0.54 |  |  |  |  |  |  |  | 2.65 ± 0.018 | 3.50 ± 0.33 | EC50 (M3 muscarinic receptor): 0.1 µM; E′MAX (M3 muscarinic receptor): 22 ± 2 fold over basal; Kd (M3 muscarinic receptor): 0.398 µM; RAi (M3 muscarinic receptor): 4.14 ± 0.38; Δlog(τ/KA) (M3 muscarinic receptor): −0.62 ± 0.06; τ (M3 muscarinic receptor): 2.9 ± 0.3; EC50 (M2 muscarinic receptor): 1.15 µM; Kd (M2 muscarinic receptor): 3.98 µM; τ (M2 muscarinic receptor; M2Gs (↑cAMP), Table 8): 2.3 ± 0.2 |
